Measurements from ChEMBL document CHEMBL3039007, “Structure-based identification of OATP1B1/3 inhibitors” (Mol Pharmacol, 2013).

Assays:
[1] = molecular target: T1, Solute carrier organic anion transporter family member 1B1 (Homo sapiens, UniProt Q9Y6L6); conditions: chinese hamster, cho, 10 µM
T1 sequence (Q9Y6L6 whole entry): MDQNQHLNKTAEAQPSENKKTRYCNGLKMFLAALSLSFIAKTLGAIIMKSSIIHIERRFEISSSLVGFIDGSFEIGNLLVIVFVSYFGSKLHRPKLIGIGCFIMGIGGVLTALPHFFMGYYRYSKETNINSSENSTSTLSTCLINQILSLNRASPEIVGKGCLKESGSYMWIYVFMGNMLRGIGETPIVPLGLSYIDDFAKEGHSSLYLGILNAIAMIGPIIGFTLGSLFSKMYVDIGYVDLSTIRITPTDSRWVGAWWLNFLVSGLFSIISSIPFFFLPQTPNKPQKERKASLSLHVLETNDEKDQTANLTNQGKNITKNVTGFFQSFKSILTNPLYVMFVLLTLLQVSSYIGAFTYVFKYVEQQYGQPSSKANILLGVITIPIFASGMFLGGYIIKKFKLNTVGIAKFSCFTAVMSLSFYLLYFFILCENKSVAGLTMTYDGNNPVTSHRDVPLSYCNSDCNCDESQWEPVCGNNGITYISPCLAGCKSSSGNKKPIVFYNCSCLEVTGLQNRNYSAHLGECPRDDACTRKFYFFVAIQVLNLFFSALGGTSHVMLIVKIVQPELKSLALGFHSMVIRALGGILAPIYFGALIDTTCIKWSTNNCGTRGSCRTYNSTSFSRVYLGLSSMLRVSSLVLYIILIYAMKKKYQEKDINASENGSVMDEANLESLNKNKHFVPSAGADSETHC

[2] = molecular target: T2, Solute carrier organic anion transporter family member 1B3 (Homo sapiens, UniProt Q9NPD5); conditions: chinese hamster, cho, 10 µM
T2 sequence (Q9NPD5 whole entry): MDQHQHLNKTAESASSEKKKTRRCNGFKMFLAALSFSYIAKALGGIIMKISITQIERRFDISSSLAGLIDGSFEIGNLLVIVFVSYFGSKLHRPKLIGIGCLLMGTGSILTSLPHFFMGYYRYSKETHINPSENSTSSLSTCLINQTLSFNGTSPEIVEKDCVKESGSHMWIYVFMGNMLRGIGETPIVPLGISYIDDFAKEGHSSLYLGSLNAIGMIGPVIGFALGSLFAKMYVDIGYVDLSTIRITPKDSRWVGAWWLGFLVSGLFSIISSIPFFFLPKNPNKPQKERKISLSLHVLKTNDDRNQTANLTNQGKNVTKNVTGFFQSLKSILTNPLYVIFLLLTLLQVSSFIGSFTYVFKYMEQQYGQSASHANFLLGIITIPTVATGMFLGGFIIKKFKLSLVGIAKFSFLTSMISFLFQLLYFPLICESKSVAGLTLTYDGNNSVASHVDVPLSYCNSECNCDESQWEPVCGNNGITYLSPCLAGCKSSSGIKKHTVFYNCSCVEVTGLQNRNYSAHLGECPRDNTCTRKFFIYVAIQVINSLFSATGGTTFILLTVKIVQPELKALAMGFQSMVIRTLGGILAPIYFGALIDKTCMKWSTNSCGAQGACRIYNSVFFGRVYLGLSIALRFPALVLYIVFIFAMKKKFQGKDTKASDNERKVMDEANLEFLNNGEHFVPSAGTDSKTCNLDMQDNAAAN

residual activity [1] [%] | residual activity [2] [%] | SMILES
84.34 | 99.18 | CCN(CC)CCCC(C)Nc1ccnc2cc(Cl)ccc12.O=P(O)(O)O.O=P(O)(O)O (stereo not drawn) [CHLOROQUINE PHOSPHATE]
91.3 | 92.54 | COc1ccc(C(Cl)=C(c2ccc(OC)cc2)c2ccc(OC)cc2)cc1 [CHLOROTRIANISENE]
43.47 | 62.22 | Oc1c(Cl)cc(Cl)c2cccnc12 [CHLOROXINE]
116.8 | 121.1 | Cc1cc(O)cc(C)c1Cl [CHLOROXYLENOL]
99.49 | 97.66 | CN(C)CCCN1c2ccccc2Sc2ccc(Cl)cc21 [CHLORPROMAZINE]
102 | 102.2 | CCCNC(=O)NS(=O)(=O)c1ccc(Cl)cc1 [CHLORPROPAMIDE]
98.6 | 88.49 | Cc1ccc2c(Cl)cc(Cl)c(O)c2n1 [CHLORQUINALDOL]
128.8 | 95.91 | CN(C)[C@@H]1C(O)=C(C(N)=O)C(=O)[C@@]2(O)C(O)=C3C(=O)c4c(O)ccc(Cl)c4[C@@](C)(O)[C@H]3C[C@@H]12.Cl [CHLORTETRACYCLINE HYDROCHLORIDE]
95.51 | 100 | CC(C)CCC[C@@H](C)[C@H]1CC[C@H]2[C@@H]3CC=C4C[C@@H](O)CC[C@]4(C)[C@H]3CC[C@]12C [CHOLESTEROL]
99.52 | 75.03 | C[C@H](CCC(=O)O)[C@H]1CC[C@H]2[C@@H]3[C@H](O)C[C@@H]4C[C@H](O)CC[C@]4(C)[C@H]3C[C@H](O)[C@]12C [CHOLIC ACID]
133.6 | 93 | O=C(O)c1cc(=O)c2ccccc2o1 [CHROMOCARB]
83.79 | 97.37 | CC(C)=CC1C(C(=O)O)C1(C)C (stereo not drawn) [CHRYSANTHEMIC ACID]
106.8 | 105.2 | CC(C)=CC1C(CO)C1(C)C (stereo not drawn) [CHRYSANTHEMYL ALCOHOL]
112.1 | 103.1 | COc1cc(OC)c2c(=O)cc(-c3ccccc3)oc2c1 [CHRYSIN DIMETHYL ETHER]
115.4 | 129.1 | O=c1cc(-c2ccccc2)oc2cc(O)cc(O)c12 [CHRYSIN]
128.6 | 93.35 | Cc1cc(O)c2c(c1)C(=O)c1cccc(O)c1C2=O [CHRYSOPHANOL]
72.87 | 92.34 | Oc1cc(O)c2c(c1)O[C@H](c1ccc(O)c(O)c1)[C@@H](O)C2 [CIANIDANOL]
129.1 | 106 | Cc1cc(C2CCCCC2)n(O)c(=O)c1.NCCO [CICLOPIROX OLAMINE]
207.2 | 98.73 | O=C1CCc2cc(OCCCCc3nnnn3C3CCCCC3)ccc2N1 [CILOSTAZOL]
185.1 | 102.7 | C(=C\c1ccccc1)/CN1CCN(C(c2ccccc2)c2ccccc2)CC1 [CINNARIZINE]
105.3 | 112.4 | O=C(O)c1cn(C2CC2)c2cc(N3CCNCC3)c(F)cc2c1=O [CIPROFLOXACIN]
81.06 | 69.94 | C[N+](C)(C)CCOP(=O)(O)OP(=O)([O-])OC[C@H]1O[C@@H](n2ccc(N)nc2=O)[C@H](O)[C@@H]1O [CITICOLINE]
81.95 | 105.5 | COc1cc(OC)c2ccc(=O)oc2c1 [CITROPTEN]
69.97 | 115.2 | CCC[C@@H]1C[C@@H](C(=O)N[C@@H]([C@H]2O[C@H](SC)[C@H](O)[C@@H](O)[C@H]2O)[C@H](C)Cl)N(C)C1.Cl [CLINDAMYCIN HYDROCHLORIDE]
20.25 | 21.34 | CCC(=O)O[C@]1(C(=O)CCl)[C@@H](C)C[C@H]2[C@@H]3CCC4=CC(=O)C=C[C@]4(C)[C@@]3(F)[C@@H](O)C[C@@]21C [CLOBETASOL PROPIONATE]
114.7 | 127.7 | CCOC(=O)C(C)(C)Oc1ccc(Cl)cc1 [CLOFIBRATE]
111.2 | 99.14 | CC(C)(Oc1ccc(Cl)cc1)C(=O)O [CLOFIBRIC ACID]
77.9 | 76.53 | CC(C)(C)CC(C)(C)c1ccc(O)c(Cc2ccc(Cl)cc2Cl)c1 [CLOFOCTOL]
99.41 | 126.3 | CCN(CC)CCOc1ccc(C(=C(Cl)c2ccccc2)c2ccccc2)cc1 [CLOMIPHENE]
43.58 | 78.81 | CN(C)CCCN1c2ccccc2CCc2ccc(Cl)cc21.Cl [CLOMIPRAMINE HYDROCHLORIDE]

SMILES | residual activity [1] [%] | residual activity [2] [%]
Clc1ccc(C(c2ccc(Cl)cc2)C(Cl)(Cl)Cl)cc1 [CHLOROPHENOTHANE] | 124.5 | 116.2
N#Cc1c(Cl)c(Cl)c(Cl)c(C#N)c1Cl [CHLOROTHALONIL] | 92.97 | 81.58
CC(C)OC(=O)Nc1cccc(Cl)c1 [CHLORPROPHAM] | 104.8 | 107
CN(C)CC/C=C1/c2ccccc2Sc2ccc(Cl)cc21.Cl [CHLORPROTHIXENE HYDROCHLORIDE] | 85.65 | 101.8
CCOP(=S)(OCC)Oc1nc(Cl)c(Cl)cc1Cl [CHLORPYRIFOS] | 140 | 127.1
NS(=O)(=O)c1cc(C2(O)NC(=O)c3ccccc32)ccc1Cl (stereo not drawn) [CHLORTHALIDONE] | 62.41 | 67.04
CC(C)CCC[C@@H](C)[C@H]1CC[C@H]2[C@@H]3CC=C4CC(=O)CC[C@]4(C)[C@H]3CC[C@]12C [CHOLEST-5-EN-3-ONE] | 119.6796 | 103.5
CC(C)CCC[C@@H](C)[C@H]1CC[C@H]2[C@@H]3CC[C@H]4CC(=O)CC[C@]4(C)[C@H]3CC[C@]12C [CHOLESTAN-3-ONE] | 74.43 | 73.06
CC(C)CCC[C@@H](C)[C@H]1CC[C@H]2[C@@H]3C[C@@H](O)[C@@]4(O)C[C@@H](O)CC[C@]4(C)[C@H]3CC[C@]12C [CHOLESTAN-3beta,5alpha,6beta-TRIOL] | 90.42 | 93.54
C[N+](C)(C)CCO.[Cl-] [CHOLINE CHLORIDE] | 93.68 | 113.2
CCOC(=O)C1C(C=C(C)C)C1(C)C (stereo not drawn) [CHRYSANTHEMIC ACID, ETHYL ESTER] | 83.17 | 89.36
CN/C(=N/CCSCc1nc[nH]c1C)NC#N [CIMETIDINE] | 120.2 | 96.42
C=C[C@H]1CN2CC[C@H]1C[C@H]2[C@H](O)c1ccnc2ccccc12 [CINCHONIDINE] | 86.58 | 111.1
C=C[C@H]1C[N@@]2CC[C@H]1C[C@@H]2[C@@H](O)c1ccnc2ccccc12 [CINCHONINE] | 122.3 | 105.3
CC(=O)NC1CCSC1=O (stereo not drawn) [CITIOLONE] | 110.6 | 92.74
CC1=C2C(=CO[C@H](C)[C@H]2C)C(O)=C(C(=O)O)C1=O [CITRININ] | 34.39 | 67.29
COc1cc(N)c(Cl)cc1C(=O)NC1CCN(Cc2ccccc2)CC1.O=C(O)/C=C\C(=O)O [CLEBOPRIDE MALEATE] | 84.15 | 124.4
CC(C)(C)NCC(O)c1cc(Cl)c(N)c(Cl)c1.Cl (stereo not drawn) [CLENBUTEROL HYDROCHLORIDE] | 78.76 | 99.43
C[N+]12CCC(CC1)C(OC(=O)C(O)(c1ccccc1)c1ccccc1)C2.[Br-] (stereo not drawn) [CLIDINIUM BROMIDE] | 125.2 | 92.46
